These results are taken from patent publication US11173133B2, “Zeaxanthin formulations with additional ocular-active nutrients, for protecting eye health and treating eye disorders” (ZeaVision LLC, priority 2003, dated 2021).

SMILES strings stand for the structures. Read-outs that look alike come from different tables or passages of the source.

For data set [1] the following is noted: naturally-occurring dextrorotatory stereoisomer; cited from earlier work.
Data set [2] in a line: small-scale tests of high-dose zeaxanthin in human volunteers (safety, skin tone). Format: in vivo. The settings on record: dosages of 50 to 80 mg/day. The procedure:
(§1) As mentioned above, the categories of pharmaceutical preparations and dietary (nutritional) supplements overlap, and there is no specific upper limit for dosages that would cause a dietary (nutritional) supplement to be reclassified as a pharmaceutical preparation. Safety data that was gathered on zeaxanthin, using high-dosage tests involving rats, indicated a “no adverse effect limit” (NOEL) level of at least 1200 mg/day. […] Accordingly, people who want tans, or who are planning to go on a vacation or other trip that will involve exposure to abnormally high levels of sunlight, may take large quantities of zeaxanthin (up to or even exceeding 100 mg/day), to help them avoid sunburn and obtain a deeper tanned color on their skin. Such use, even at very high quantities, would be regarded as taking a dietary supplement rather than a pharmaceutical, and such dosages would still remain far below the NOAEL levels that were determined by animal tests.

The next data set concerns sunburn. The data set is described as follows: sunburn after controlled high-intensity UV exposure of small skin areas in human volunteers. The data set is classed as in vivo. The settings on record: 50 to 80 mg/day; small areas of skin exposed to medical-grade UV lamp. How it is done: as §1
The subject of another data set is wet macular degeneration. Put plainly: laser treatment using verteporfin in a patient with wet macular degeneration taking zeaxanthin. Format: in vivo, human. The settings on record: one patient, daily zeaxanthin capsules before and after treatment. An excerpt:
As another example of the uncertainties and doubts that surround zeaxanthin among skilled physicians who treat eye diseases, the Inventor has personal knowledge of a patient who has the “wet” (or “exudative”) form of macular degeneration. This disease is characterized by aggressive growth of capillaries in and around certain layers of the retina, and it leads to rapid and devastating loss of vision. The best known treatment for wet AMD is called laser photocoagulation, or photodynamic therapy. It uses a drug called verteporfin, which is activated by a laser that is shone directly into the eyes of patients who have taken the drug. In October of 2003, a ZeaVision customer (a person) who was taking zeaxanthin capsules on a daily basis was scheduled to have a laser treatment using verteporfin, at the Wilmer Eye Institute in Baltimore, which is affiliated with the Johns Hopkins School of Medicine. This patient told their treating physician, who is one of the top experts in the world on treating macular degeneration, that they were taking zeaxanthin capsules on a daily basis. […] The results of that treatment, as measured up until the date this is being written, have been outstanding, and have been much better than was expected by the treating physician. […]

For data set [3] the following is noted: rats, high-dosage tests; Roche Vitamins 75-day Premarket Notification, FDA number 95S-0316; cited from earlier work.
For data set [4] the following is noted: chemical / lab tests, cited from earlier work.
Data set [5] concerns macular degeneration. The note with it: cited from earlier work.
Data set [6] has as its system macular degeneration. The note with it: oral dosages; Newsome et al 1988 and others; cited from earlier work.

As for `O=C(O)CCCC[C@@H]1CCSS1` (racemic) [lipoic acid], the “anti-oxidant activity versus S (levorotatory) isomers” value in data set [1] is on record as “better anti-oxidant activity”.
For `CC1=C(/C=C/C(C)=C/C=C/C(C)=C/C=C/C=C(C)/C=C/C=C(C)/C=C/C2=C(C)C[C@@H](O)CC2(C)C)C(C)(C)C[C@H](O)C1` [zeaxanthin], the “safety in human volunteers” value in data set [2] is “entirely safe”. The “risk and severity of sunburn” value with sunburn was “effective in reducing a person's risk and severity of sunburn”. Further, the “results of laser-verteporfin treatment” value in the data set with wet macular degeneration is “outstanding”. The “"no adverse effect limit" (NOEL) level” value in data set [3] was “at least 1200 mg/day”. The “potency in absorbing and quenching oxygen free radicals (anti-oxidant), versus lutein” value in data set [4] was “more potent and effective than lutein”; in data set [4] (listed as Zeaxanthin) it was “better and more potent anti-oxidant than lutein”.
For the compound `[Zn]` [zinc], in the data set on macular degeneration [5] (AREDS-1, high dosages (zinc 80 mg/day), some but not all patient categories), the “level of protection against macular degeneration” value was “low and weak level of protection”. Besides, the “benefits of zinc in the AREDS-1 trial” value in the data set on macular degeneration [5] (compared with the combination of vitamins A, C, and E) was “strong enough to roughly match the benefits provided by a combination of vitamins A, C, and E”. In addition, the “results of oral zinc in macular degeneration and other ocular problems” value in the data set on macular degeneration [6] is “good, although not especially strong”.
